{"source": "patent US10047151B2", "about": "“Methods for the treatment of cancer and inflammatory diseases using cereblon as a predictor” (Celgene Corporation, priority 2011, dated 2018)", "type_in_all_cases": "cell-based", "key": {"p21^WAF-1": {"tested_on": "p21^WAF-1", "assay": "p21WAF-1 mRNA and protein levels in U266B1 cells", "settings": "U266B1, control mock and negative control siRNA-transfected cells; pomalidomide 1 μM, lenalidomide 10 μM", "method": "To further investigate the effects of CRBN on the cell cycle arrest induced by drugs we used RT-PCR and Western blot analysis to measure the levels of key cell cycle and apoptotic regulators. U266B1 cells were transfected with mock, negative control siRNA, CRBN-siRNA-7 and CRBN-siRNA-11 for 24, 48, 72 and 96 h (FIG. 3A). Cells were treated 24 h after transfection with DMSO (0.1%), pomalidomide (1 μM) and lenalidomide (10 μM) for 1, 2, 3 days and the effect on mRNA and protein levels of the cyclin-dependent kinase (CDK) inhibitor p21^WAF-1 were evaluated. It has been shown that lenalidomide- and pomalidomide-induced cell cycle arrest is dependent on up-regulation of p21^WAF-1 in […]. […] However, knockdown of CRBN prevents the induction of p21^WAF-1 indicating the successful abrogation of G1 arrest and renewal of S phase progression (FIGS. 3C & 3D)."}, "NF-κB": {"tested_on": "NF-κB", "assay": "NF-κB-driven luciferase reporter gene assay in DLBCL cells", "settings": "OCI-Ly10 and U2932; 2 day drug treatment", "method": "For the NF-κB-driven luciferase reporter gene assay, cells were transfected with the pGL4.32 [luc2P/NF-κB-RE/Hygro] plasmid (Promega, Madison, Wis.) using Nucleofector kit V and program 013 according to the manufacturer's protocol (Amaxa Biosystems, Gaithersburg, Md.). After 24 hours of transfection, cells were treated with test agents for 2 days and lysates were prepared using the Dual-Glo® Luciferase Assay System (Promega). Luciferase activities of each sample were measured using a TopCount NXT Microplate Scintillation and Luminescence Counter (Packard BioScience).\nTo knockdown IRF4, cells were transfected with Silencer® Select siRNA (small interfering RNA, Applied Biosystems) directed against IRF4, CRBN, or Silencer® Select Negative Control siRNAs at a final concentration of 0.2-1 μM using Nucleofector® Kit V for transfection. For IRF4 overexpression, cells were transfected with IRF4- or green fluorescent protein (GFP)-cytomegalovirus (CMV) expression plasmids (OriGene Technologies, Rockville, Md.) for 24 h using the Cell Line Nucleofector kit V as above-mentioned. After 24 hours of transfection, cells were treated with lenalidomide for 2 days before luciferase assay, RT-PCR gene expression analysis and Western blot. […]"}, "U266B1 cells": {"tested_on": "U266B1 cells", "assay": "Gene expression profile by microarray in U266B1 cells", "settings": "negative control siRNA-transfected U266B1 cells; pomalidomide 1 μM, lenalidomide 10 μM; ±1.7 fold, P<0.05", "method": "Gene expression profile using microarray technology identified 759 or 609 genes differentially modulated in negative control siRNA-transfected U266B1 cells treated with pomalidomide (1 μM) or lenalidomide (10 μM) compared to DMSO treated control (±1.7 fold; P<0.05 ANOVA p-value) (FIGS. 5A & 5B)."}, "H929 cells": {"tested_on": "H929 cells", "assay": "Cell cycle progression (cells in S phase) in siRNA-transfected H929 cells", "settings": "72 h treatment", "method": "The effect of CRBN in H929 cells was also evaluated. H929 cells were transfected with mock, negative control siRNA and CRBN-siRNA-7 for 24, 48, 72 and 96 h. Cells were treated 24 h after transfection with DMSO (0.1%), pomalidomide (1 μM), lenalidomide (10 μM) or 3-(5-amino-2-methyl-4-oxo-4H-quinazolin-3-yl)-piperidine-2,6-dione (“Compound B”) for 1, 2, 3 days and the effect on cell cycle and proliferation investigated. Lenalidomide, pomalidomide and Compound B induced a delay of cell cycle progression, measured as the decrease of the number of cells in S phase, in control mock and negative control siRNA-transfected cells after 72 h treatment (FIG. 2C). Knockdown of CRBN markedly abrogated immunomodulatory drugs-induced delay in cell cycle progression in H929 cells (FIG. 2C) from of 50 to 4% for lenalidomide, from 70 to 15% for pomalidomide, and from 65 to 22% for Compound B."}, "pRb": {"tested_on": "pRb", "assay": "pRb phosphorylation in H929 cells (Western blot)"}, "OCI-Ly10": {"tested_on": "OCI-Ly10", "assay": "Apoptosis of DLBCL cells", "description": "In order to define the place of lenalidomide for DLBCL therapy in specific patient populations and to understand the molecular mechanisms of efficacy, a panel of DLBCL cell lines was collected in this study. The DLBCL subtypes of the cell lines were confirmed based on literature information (Lenz G, et al., Proc Natl Acad Sci USA 2008; 105: 13520-5) and molecular analysis, including intracellular NF-κB activity or IRF4 expression, as well as gene expression profiling of key signature genes of activated B cells."}, "poly-ubiquitin chains": {"tested_on": "poly-ubiquitin chains", "assay": "Global polyubiquitination by immunofluorescence in H929 cells", "settings": "1 μM, 30 minutes", "method": "Specific antibodies for poly-ubiquitin chains were used to study the effect of immunomodulatory drugs on global levels of ubiquitination. H929 cells were treated with lenalidomide (1 μM), pomalidomide (1 μM) or proteasome inhibitor MG132. After 30 minutes cells were process for immunofluorescence. Global levels of K63-linked polyubiquitination were quantified by Cellomics."}}, "data": [{"smiles": "Nc1cccc2c1CN(C1CCC(=O)NC1=O)C2=O", "note": "(stereo not drawn) [lenalidomide, 3-(4-amino-1-oxo-1,3-dihydro-isoindol-2-yl)-piperidine-2,6-dione]", "values": [{"measurement": "p21 level", "setting": "p21^WAF-1", "result": "up-regulated"}, {"measurement": "inhibition of transcriptional activity of NF-κB", "setting": "NF-κB", "result": "32-56%"}, {"measurement": "genes differentially modulated compared to DMSO treated control", "setting": "U266B1 cells", "result": 609, "unit": "genes"}, {"measurement": "delay in cell cycle progression (decrease of the number of cells in S phase)", "setting": "H929 cells; H929 cells with knockdown of CRBN", "result": 4, "unit": "%"}, {"measurement": "delay in cell cycle progression (decrease of the number of cells in S phase)", "setting": "H929 cells; control mock and negative control siRNA-transfected H929 cells", "result": 50, "unit": "%"}, {"measurement": "phosphorylation of pRB", "setting": "pRb", "result": "decreased"}, {"measurement": "apoptosis of sensitive cell lines", "setting": "OCI-Ly10", "result": "induced apoptosis"}, {"measurement": "K-63-linked ubiquitination", "setting": "poly-ubiquitin chains", "result": "but not K-63-linked ubiquitination"}, {"measurement": "total K48-linked polyubiquitination", "setting": "poly-ubiquitin chains", "result": "decrease"}]}]}
